“Also recorded” adds a separate entry of the source.
Assays:
iNKT cells [1] = test: BAL fluid secondary outcomes after α-GalCer challenge; assay type: in vivo, cynomolgus monkeys; conditions: monkeys, after α-GalCer vs vehicle
Text: (§1) Four monkeys were challenged with α-GalCer or vehicle using a cross-over design (approved by animal care and use committees at the Children's Hospital Boston and the Charles River Laboratory), which minimized the effects of genetic variation and the differing past histories in each of the outbred monkeys. […] Each adult cynomolgus monkey was anesthetized, intubated and challenged with nebulized α-GalCer or vehicle. For safety reasons and to avoid any possible toxic effects of α-GalCer that might cause AHR, a dose escalation approach was used, starting with a very low dose of α-GalCer (150 μg/m^2), similar to the lowest doses used intravenously in Phase I safety studies in humans with solid tumors. Only one dose of α-GalCer was administered to the monkeys before evaluation of AHR, because following activation with α-GalCer, iNKT cells become anergic temporarily (53). 24 hours after challenge, the monkeys were reintubated and assessed for AHR by measuring lung resistance (RL) in response to increasing concentrations of methacholine.

iNKT cells [2] = test: AHR (lung resistance to methacholine) after nebulized α-GalCer challenge, cross-over design; assay type: in vivo, cynomolgus monkeys
Text: as §1

iNKT cells [3] = conditions: cited from earlier work

CCCCCCCCCCCCCCCCCCCCCCCCCC(=O)N[C@@H](CO[C@H]1O[C@H](CO)[C@H](O)[C@H](O)[C@H]1O)[C@H](O)[C@H](O)CCCCCCCCCCCCCC [α-GalCer, α-GalactosylCeramide]
increased IL-4 in the BAL fluid (secondary outcome) (iNKT cells [1]): did not reach statistical significance
increased eosinophils in the BAL fluid (secondary outcome) (iNKT cells [1]): did not reach statistical significance
increased iNKT cells in the BAL fluid (secondary outcome) (iNKT cells [1]): did not reach statistical significance
increased neutrophils in the BAL fluid (secondary outcome) (iNKT cells [1]): did not reach statistical significance
percentage change in lung resistance (RL) from baseline compared to vehicle control (iNKT cells [2]; combined data of four monkeys, highest dose of methacholine, paired T test p=0.0003): significantly higher
AHR compared to challenge with vehicle control, monkeys responding (iNKT cells [2]; first very low inhaled dose 150 μg/m^2, 24 h after challenge, four monkeys): three of the four monkeys developed significantly increased AHR
AHR response of monkey B (non-responder to first dose) (iNKT cells [2]; higher dose 600 μg/m^2, 24 h after challenge): developed a significant AHR response
induction of airway hyperreactivity (AHR) (iNKT cells [2]; monkeys, α-GalCer challenge in the absence of ozone or allergen): induced AHR; also recorded: resulted in the development of significant AHR; also recorded: induces airway hyperreactivity
induction of AHR in wildtype / naïve mice (iNKT cells [3]; administered into the lungs / intranasally): causes AHR; also recorded: results in the development of AHR
induction of AHR / effects in iNKT (NKT) cell deficient mice (iNKT cells [3]; administered into the lungs): no effects
induction of AHR in class II−/− mice (lack conventional CD4+ T cells) (iNKT cells [3]; without allergen administration): functioned to induce AHR

Reference: US20110300154A1, “TREATMENT OF AIRWAY HYPERREACTIVITY” (CHILDREN'S MEDICAL CENTER CORPORATION, priority 2007, published 2011)
